{"source": "patent US12447156B2", "about": "“Treating progressive familial intrahepatic cholestasis (PFIC) with IBAT inhibitors” (ALBIREO AB, priority 2020, dated 2025)", "test_system": "patients with PFIC3 or PFIC6", "assay": "PEDFIC 2: efficacy and safety in patients with PFIC3 or PFIC6", "assay_type": "in vivo, human", "details": "for Common TEAEs by preferred term: ALT increased / Common TEAEs by preferred term: INR increased / Common TEAEs by preferred term: Total bilirubin increased / Common TEAEs by preferred term: Vitamin D deficiency / Mild TEAEs / Moderate TEAEs / Serious TEAEs / Severe TEAEs / TEAEs / TEAEs leading to discontinuation: 120 μg/kg once daily", "excerpt": "In PEDFIC 2, eligible patients are enrolled into one of 2 cohorts, based on the following criteria: Cohort 1 includes pediatric patients with PFIC1 or PFIC2 from PEDFIC 1 and cohort 2 includes patients of any age with any PFIC type; these are newly enrolled patients. In both cohorts, eligible patients are those with genetically confirmed PFIC, elevated serum bile acids (≥100 μmol/L), and significant pruritus (i.e., itching or scratching score of ≥2 per patient/caregiver report using the PRUCISION instrument). PEDFIC 2 includes a 72-week treatment period in which all patients receive oral, once-daily odevixibat 120 μg/kg.\nChange from baseline in serum bile acids, pruritus, hepatic biochemical parameters, growth, and sleep; serum bile acid response (i.e., serum bile acids reduced ≥70% or levels ≤70 μmol/L); proportion of positive pruritus assessments (PPAs) at the patient level (i.e., pruritus score ≤1 or a ≥1-point drop from baseline); and treatment-emergent adverse events (TEAEs). Patient pruritus and sleep were evaluated twice daily by caregivers using the validated PRUCISION scale; pruritus responses range from 0 to 4, with higher scores indicating worse symptom.", "key": {"[1]": {"details": "6 patients with PFIC3 or PFIC6, 120 μg/kg"}, "[2]": {"details": "patient with PFIC6, N=1, oral once-daily 120 μg/kg"}}, "note": "Marks after values point to notes of the source that are not given here."}
{"compound": "CCCCC1(CCCC)CN(c2ccccc2)c2cc(SC)c(OCC(=O)N[C@@H](C(=O)N[C@@H](CC)C(=O)O)c3ccc(O)cc3)cc2S(=O)(=O)N1", "note": "[Odevixibat, 1,1-dioxo-3,3-dibutyl-5-phenyl-7-methylthio-8-(N-{(R)-α-[N-((S)-1-carboxypropyl)carbamoyl]-4-hydroxybenzyl}carbamoylmethoxy)-2,3,4,5-tetrahydro-1,2,5-benzothiadiazepine]", "values": [{"measurement": "patients who met criteria for serum bile acid response at the last assessment", "setting": "2 with PFIC3 and 1 with PFIC6, of 6 patients", "value": "Three"}, {"measurement": "reductions in pruritus score from baseline to last assessment", "setting": "[1]", "value": "all but 1 patient (PFIC3) had reductions in pruritus score"}, {"measurement": "reductions in serum bile acids from baseline to last assessment", "setting": "[1]", "value": "all patients with PFIC3 or PFIC6 had reductions in serum bile acids"}, {"measurement": "Common TEAEs by preferred term: ALT increased", "setting": "Patient 1 (PFIC3)", "value": 0}, {"measurement": "Common TEAEs by preferred term: INR increased", "setting": "Patient 1 (PFIC3)", "value": 0}, {"measurement": "Common TEAEs by preferred term: Total bilirubin increased", "setting": "Patient 1 (PFIC3)", "value": 0}, {"measurement": "Common TEAEs by preferred term: Vitamin D deficiency", "setting": "Patient 1 (PFIC3)", "value": 0}, {"measurement": "Mild TEAEs", "setting": "Patient 1 (PFIC3)", "value": 0}, {"measurement": "Moderate TEAEs", "setting": "Patient 1 (PFIC3)", "value": 0}, {"measurement": "Serious TEAEs", "setting": "Patient 1 (PFIC3)", "value": 0}, {"measurement": "Severe TEAEs", "setting": "Patient 1 (PFIC3)", "value": 0}, {"measurement": "TEAEs", "setting": "Patient 1 (PFIC3)", "value": 0}, {"measurement": "TEAEs leading to discontinuation", "setting": "Patient 1 (PFIC3)", "value": 0}, {"measurement": "Common TEAEs by preferred term: ALT increased", "setting": "Patient 2 (PFIC3)", "value": 0}, {"measurement": "Common TEAEs by preferred term: INR increased", "setting": "Patient 2 (PFIC3)", "value": 1}, {"measurement": "Common TEAEs by preferred term: Total bilirubin increased", "setting": "Patient 2 (PFIC3)", "value": 1}, {"measurement": "Common TEAEs by preferred term: Vitamin D deficiency", "setting": "Patient 2 (PFIC3)", "value": 0}, {"measurement": "Mild TEAEs", "setting": "Patient 2 (PFIC3)", "value": 1}, {"measurement": "Moderate TEAEs", "setting": "Patient 2 (PFIC3)", "value": 2}, {"measurement": "Serious TEAEs", "setting": "Patient 2 (PFIC3)", "value": 0}, {"measurement": "Severe TEAEs", "setting": "Patient 2 (PFIC3)", "value": 0}, {"measurement": "TEAEs", "setting": "Patient 2 (PFIC3)", "value": 3}, {"measurement": "TEAEs leading to discontinuation", "setting": "Patient 2 (PFIC3)", "value": 0}, {"measurement": "Common TEAEs by preferred term: ALT increased", "setting": "Patient 3 (PFIC3)", "value": 1}, {"measurement": "Common TEAEs by preferred term: INR increased", "setting": "Patient 3 (PFIC3)", "value": 1}, {"measurement": "Common TEAEs by preferred term: Total bilirubin increased", "setting": "Patient 3 (PFIC3)", "value": 2}, {"measurement": "Common TEAEs by preferred term: Vitamin D deficiency", "setting": "Patient 3 (PFIC3)", "value": 0}, {"measurement": "Mild TEAEs", "setting": "Patient 3 (PFIC3)", "value": 0}, {"measurement": "Moderate TEAEs", "setting": "Patient 3 (PFIC3)", "value": 4}, {"measurement": "Serious TEAEs", "setting": "Patient 3 (PFIC3)", "value": 0}, {"measurement": "Severe TEAEs", "setting": "Patient 3 (PFIC3)", "value": 1}, {"measurement": "TEAEs", "setting": "Patient 3 (PFIC3)", "value": 5}, {"measurement": "TEAEs leading to discontinuation", "setting": "Patient 3 (PFIC3)", "value": 0}, {"measurement": "Common TEAEs by preferred term: ALT increased", "setting": "Patient 4 (PFIC3)", "value": 1}, {"measurement": "Common TEAEs by preferred term: INR increased", "setting": "Patient 4 (PFIC3)", "value": 0}, {"measurement": "Common TEAEs by preferred term: Total bilirubin increased", "setting": "Patient 4 (PFIC3)", "value": 0}, {"measurement": "Common TEAEs by preferred term: Vitamin D deficiency", "setting": "Patient 4 (PFIC3)", "value": 1}, {"measurement": "Mild TEAEs", "setting": "Patient 4 (PFIC3)", "value": 2}, {"measurement": "Moderate TEAEs", "setting": "Patient 4 (PFIC3)", "value": 0}, {"measurement": "Serious TEAEs", "setting": "Patient 4 (PFIC3)", "value": 0}, {"measurement": "Severe TEAEs", "setting": "Patient 4 (PFIC3)", "value": 3}, {"measurement": "TEAEs", "setting": "Patient 4 (PFIC3)", "value": 5}, {"measurement": "TEAEs leading to discontinuation", "setting": "Patient 4 (PFIC3)", "value": 0}, {"measurement": "Common TEAEs by preferred term: ALT increased", "setting": "Patient 5 (PFIC3)", "value": 0}, {"measurement": "Common TEAEs by preferred term: INR increased", "setting": "Patient 5 (PFIC3)", "value": 0}, {"measurement": "Common TEAEs by preferred term: Total bilirubin increased", "setting": "Patient 5 (PFIC3)", "value": 0}, {"measurement": "Common TEAEs by preferred term: Vitamin D deficiency", "setting": "Patient 5 (PFIC3)", "value": 2}, {"measurement": "Mild TEAEs", "setting": "Patient 5 (PFIC3)", "value": 3}, {"measurement": "Moderate TEAEs", "setting": "Patient 5 (PFIC3)", "value": 0}, {"measurement": "Serious TEAEs", "setting": "Patient 5 (PFIC3)", "value": 0}, {"measurement": "Severe TEAEs", "setting": "Patient 5 (PFIC3)", "value": 0}, {"measurement": "TEAEs", "setting": "Patient 5 (PFIC3)", "value": 3}, {"measurement": "TEAEs leading to discontinuation", "setting": "Patient 5 (PFIC3)", "value": 0}, {"measurement": "Common TEAEs by preferred term: ALT increased", "setting": "Patient 6 (PFIC6)", "value": 0}, {"measurement": "Common TEAEs by preferred term: INR increased", "setting": "Patient 6 (PFIC6)", "value": 0}, {"measurement": "Common TEAEs by preferred term: Total bilirubin increased", "setting": "Patient 6 (PFIC6)", "value": 0}, {"measurement": "Common TEAEs by preferred term: Vitamin D deficiency", "setting": "Patient 6 (PFIC6)", "value": 0}, {"measurement": "Mild TEAEs", "setting": "Patient 6 (PFIC6)", "value": 1}, {"measurement": "Moderate TEAEs", "setting": "Patient 6 (PFIC6)", "value": 0}, {"measurement": "Serious TEAEs", "setting": "Patient 6 (PFIC6)", "value": 0}, {"measurement": "Severe TEAEs", "setting": "Patient 6 (PFIC6)", "value": 0}, {"measurement": "TEAEs", "setting": "Patient 6 (PFIC6)", "value": 1}, {"measurement": "TEAEs leading to discontinuation", "setting": "Patient 6 (PFIC6)", "value": 0}, {"measurement": "% of days needing help falling asleep, change from baseline to weeks 34-36", "setting": "[2]", "value": "−21^a %"}, {"measurement": "% of days needing soothing, change from baseline to weeks 34-36", "setting": "[2]", "value": "−36^a %"}, {"measurement": "% of days sleeping with caregiver, change from baseline to weeks 34-36", "setting": "[2]", "value": "0^a %"}, {"measurement": "% of days with bleeding associated with scratching, change from baseline to weeks 34-36", "setting": "[2]", "value": "0^a %"}]}
